In patent US10781184B2, “Substituted benzazinones as antibacterial compounds” (GlaxoSmithKline Intellectual Property Development Limited, priority 2015, dated 2020):
Converted amounts (≈) assume the structure as drawn.

Legend:
Assay in all cases: Minimum Inhibitory Concentration Assay (broth microdilution, CLSI)
Assay type in all cases: cell-based
K. pneumoniae 1161486 = details: Klebsiella pneumoniae; strain 1161486, broth microdilution; read-out: K. pneumoniae 1161486 MIC
Protocol: (§1) Methods for dilution Antimicrobial Susceptibility TestS for Bacteria that Grow Aerobically; Approved Standard-Ninth Edition; M7-A9, Vol. 32 No. 2, Clinical and Laboratory Standards Institute, Wayne, Pa.; January 2012.
(§2) Performance Standards for Antimicrobial Susceptibility Testing; Twenty-Second Informational Supplement; M100-S22 Vol. 32 No. 3; Clinical and Laboratory Standards Institute, Wayne, Pa., January 2012.
(§3) Broth microdilution was performed in accordance with the CLSI recommended procedures for aerobic bacteria [CLSI, 2012].
(§4) Comparator compound stock solutions were prepared as recommended by CLSI [CLSI, 2012]. The stock solutions of novel GSK compounds were prepared at 512 mcg/mL by dissolving the compounds in dimethyl sulfoxide (DMSO) and diluting 1:10 with sterile water. The 512 mcg/mL stock was further serially diluted in the recommended broth media for the organisms being tested. Final DMSO concentration in test wells was less than 1%.
(§5) Microtitre plates were prepared using the Microlab STAR™ (Hamilton Co., Reno, Nev.) to add media (50 μL) and the Microlab AT Plus system (Hamilton Co., Reno, Nev.) to serially dilute the compounds (final concentration range 0.125 to 128 mcg/mL) and to add inoculum. A positive growth control well containing medium and the test isolate was included on each microtitre plate. Ten microliters of the test medium from the positive growth control well was plated to determine the purity of each test isolate. A microtitre mirror reader (Cooke Instruments, Ltd., England) was used to assist in determining the microdilution MIC endpoints. The MIC was determined as the lowest concentration of compound that inhibited visible growth of the organism.

P. aeruginosa PA01 = details: Pseudomonas aeruginosa; strain PA01, broth microdilution; read-out: P. aeruginosa PA01 MIC
Protocol: as §1, §2, §3, §4, §5

E. coli 7623 = details: Escherichia coli; strain 7623, broth microdilution; read-out: E. coli 7623 MIC
Protocol: as §1, §2, §3, §4, §5

Row | Compound | MIC (K. pneumoniae 1161486) | MIC (P. aeruginosa PA01) | MIC (E. coli 7623)
1 | CN(Cc1ccc(-c2ccc3c(=O)n(CC[C@](C)(C(=O)NO)S(C)(=O)=O)cnc3c2)cc1F)C1CC1 [Example 39, (2R)-4-[7-(4-{[cyclopropyl(methyl)amino]methyl}-3-fluorophenyl)-4-oxo-3,4-dihydroquinazolin-3-yl]-N-hydroxy-2-methanesulfonyl-2-methylbutanamide] | 0.5 µg/mL (≈ 0.968 µM) | 4 µg/mL (≈ 7.74 µM) | < 0.03 µg/mL
2 | COc1ccc(-c2ccc3c(=O)n(CC[C@](C)(C(=O)NO)S(C)(=O)=O)ccc3c2)cc1 [Example 53, (2R)—N-hydroxy-2-methanesulfonyl-4-[6-(4-methoxyphenyl)-1-oxo-1,2-dihydroisoquinolin-2-yl]-2-methylbutanamide] | 0.25 µg/mL (≈ 0.562 µM) | 0.5 µg/mL (≈ 1.12 µM) | < 0.03 µg/mL
3 | CN(C)N(C)Cc1ccc(-c2ccc3c(=O)n(CC[C@](C)(C(=O)NO)S(C)(=O)=O)ccc3c2)cc1 [Example 77, (2R)—N-hydroxy-2-methanesulfonyl-2-methyl-4-(1-oxo-6-{4-[(1,2,2-trimethylhydrazin-1-yl)methyl]phenyl}-1,2-dihydroisoquinolin-2-yl)butanamide] | 0.25 µg/mL (≈ 0.499 µM) | 2 µg/mL (≈ 4 µM) | 0.125 µg/mL (≈ 0.25 µM)
4 | COc1ccc(-c2ccc3c(=O)n(CC[C@](C)(C(=O)NO)S(C)(=O)=O)cc(F)c3c2)cn1 [Example 87, (2R)-4-[4-fluoro-6-(6-methoxypyridin-3-yl)-1-oxo-1,2-dihdroisoquinolin-2-yl]-N-hydroxy-2-methanesulfonyl-2-methylbutanamide] | 0.25 µg/mL (≈ 0.539 µM) | 8 µg/mL (≈ 17.3 µM) | 0.06 µg/mL (≈ 0.129 µM)
5 | C[C@@](CCn1ccc2cc(-c3ccc(CNC4CC4)cc3F)ccc2c1=O)(C(=O)NO)S(C)(=O)=O [Example 76, (2R)-4-(6-{4-[(cyclopropylamino)methyl]-2-fluorophenyl}-1-oxo-1,2-dihydroisoquinolin-2-yl)-N-hydroxy-2-methanesulfonyl-2-methylbutanamide] | 0.125 µg/mL (≈ 0.249 µM) | 0.5 µg/mL (≈ 0.997 µM) | < 0.03 µg/mL
6 | COc1ccc(-c2ccc3c(=O)n(CC[C@](C)(C(=O)NO)S(C)(=O)=O)ccc3c2)c(F)c1 [Example 55, (2R)-4-[6-(2-fluoro-4-methoxyphenyl)-1-oxo-1,2-dihydroisoquinolin-2-yl]-N-hydroxy-2-methanesulfonyl-2-methylbutanamide] | 0.063 µg/mL (≈ 0.136 µM) | 1 µg/mL (≈ 2.16 µM) | < 0.03 µg/mL
7 | Cc1ccc(-c2cc3ncn(CC[C@](C)(C(=O)NO)S(C)(=O)=O)c(=O)c3cc2F)cc1 [Example 15, (2R)-4-[6-fluoro-7-(4-methylphenyl)-4-oxo-3,4-dihydroquinazolin-3-yl]-N-hydroxy-2-methanesulfonyl-2-methylbutanamide] | 0.063 µg/mL (≈ 0.141 µM) | 0.5 µg/mL (≈ 1.12 µM) | < 0.03 µg/mL
8 | C[C@@](CCn1ccc2cc(-c3ccccc3)ccc2c1=O)(C(=O)NO)S(C)(=O)=O [Example 56, (2R)—N-hydroxy-2-methanesulfonyl-2-methyl-4-(1-oxo-6-phenyl-1,2-dihydroisoquinolin-2-yl)butanamide] | 0.125 µg/mL (≈ 0.302 µM) | 0.5 µg/mL (≈ 1.21 µM) | 0.063 µg/mL (≈ 0.152 µM)
9 | CN(C)c1ccc(-c2ccc3c(=O)n(CC[C@](C)(C(=O)NO)S(C)(=O)=O)ccc3c2)cn1 [Example 62, (2R)-4-{6-[6-(dimethylamino)pyridin-3-yl]-1-oxo-1,2-dihydroisoquinolin-2-yl}-N-hydroxy-2-methanesulfonyl-2-methylbutanamide] | 0.5 µg/mL (≈ 1.09 µM) | 8 µg/mL (≈ 17.4 µM) | 0.125 µg/mL (≈ 0.273 µM)
10 | CN(Cc1ccc(-c2cc3ncn(CC[C@](C)(C(=O)NO)S(C)(=O)=O)c(=O)c3cc2F)cc1)C1CC1 [Example 22, (2R)-4-[7-(4-{[cyclopropyl(methyl)amino]methyl}phenyl)-6-fluoro-4-oxo-3,4-dihydroquinazolin-3-yl]-N-hydroxy-2-methanesulfonyl-2-methylbutanamide] | 0.25 µg/mL (≈ 0.484 µM) | 8 µg/mL (≈ 15.5 µM) | < 0.03 µg/mL
11 | CN(C)Cc1ccc(-c2ccc3c(=O)n(CC[C@](C)(C(=O)NO)S(C)(=O)=O)ccc3c2)c(F)c1 [Example 65, (2R)-4-(6-{4-[(dimethylamino)methyl]-2-fluorophenyl}-1-oxo-1,2-dihydroisoquinolin-2-yl)-N-hydroxy-2-methanesulfonyl-2-methylbutanamide] | 0.5 µg/mL (≈ 1.02 µM) | 4 µg/mL (≈ 8.17 µM) | 0.25 µg/mL (≈ 0.511 µM)
12 | Cc1ccc(-c2ccc3c(=O)n(CC[C@](C)(C(=O)NO)S(C)(=O)=O)nnc3c2)c(F)c1 [Example 19, (2R)-4-[7-(2-fluoro-4-methylphenyl)-4-oxo-3,4-dihydro-1,2,3-benzotriazin-3-yl]-N-hydroxy-2-methanesulfonyl-2-methylbutanamide] | 0.25 µg/mL (≈ 0.557 µM) | 8 µg/mL (≈ 17.8 µM) | 0.125 µg/mL (≈ 0.279 µM)
13 | COc1ccc(-c2ccc3c(=O)n(CC[C@](C)(C(=O)NO)S(C)(=O)=O)cc(F)c3c2)cc1 [Example 83, (2R)-4-[4-fluoro-6-(4-methoxyphenyl)-1-oxo-1,2-dihydroisoquinolin-2-yl]-N-hydroxy-2-methanesulfonyl-2-methylbutanamide] | 0.25 µg/mL (≈ 0.541 µM) | 8 µg/mL (≈ 17.3 µM) | < 0.03 µg/mL
14 | COc1ccc(-c2cc(F)c3c(=O)n(CC[C@](C)(C(=O)NO)S(C)(=O)=O)cnc3c2)cc1 [Example 16, (2R)-4-[5-fluoro-7-(4-methoxyphenyl)-4-oxo-3,4-dihydroquinazolin-3-yl]-N-hydroxy-2-methanesulfonyl-2-methylbutanamide] | 1 µg/mL (≈ 2.16 µM) | 8 µg/mL (≈ 17.3 µM) | 0.25 µg/mL (≈ 0.539 µM)
15 | Cc1ccc(-c2ccc3c(=O)n(CC[C@](C)(C(=O)NO)S(C)(=O)=O)cnc3c2)cc1F [Example 9, (R)-4-(7-(3-fluoro-4-methylphenyl)-4-oxoquinazolin-3(4H)-yl)-N-hydroxy-2-methyl-2-(methylsulfonyl)butanamide] | 0.125 µg/mL (≈ 0.279 µM) | 8 µg/mL (≈ 17.9 µM) | ≤ 0.03 µg/mL
16 | COC1CN(CCc2ccc(-c3cc4ncn(CC[C@](C)(C(=O)NO)S(C)(=O)=O)c(=O)c4cc3F)c(F)c2F)C1 [Example 24, (2R)-4-(7-{2,3-difluoro-4-[2-(3-methoxyazetidin-1-yl)ethyl]phenyl}-6-fluoro-4-oxo-3,4-dihydroquinazolin-3-yl)-N-hydroxy-2-methanesulfonyl-2-methylbutanamide] | 1 µg/mL (≈ 1.72 µM) | 2 µg/mL (≈ 3.43 µM) | 0.25 µg/mL (≈ 0.429 µM)
17 | C[C@@](CCn1cnc2cc(-c3ccc(CCN4CCOCC4)cc3F)ccc2c1=O)(C(=O)NO)S(C)(=O)=O [Example 43, (2R)-4-(7-{2-fluoro-4-[2-(morpholin-4-yl)ethyl]phenyl}-4-oxo-3,4-dihydroquinazolin-3-yl)-N-hydroxy-2-methanesulfonyl-2-methylbutanamide] | 0.5 µg/mL (≈ 0.915 µM) | 2 µg/mL (≈ 3.66 µM) | 0.25 µg/mL (≈ 0.457 µM)
18 | C[C@@](CCn1cnc2cc(-c3ccc(CCO)cc3)c(F)cc2c1=O)(C(=O)NO)S(C)(=O)=O [Example 28, (2R)-4-(6-fluoro-7-[4-(2-hydroxyethyl)phenyl]-4-oxo-3,4-dihydroquinazolin-3-yl)-N-hydroxy-2-methanesulfonyl-2-methylbutanamide] | 0.125 µg/mL (≈ 0.262 µM) | 0.5 µg/mL (≈ 1.05 µM) | < 0.03 µg/mL
19 | CN(C)NCc1ccc(-c2ccc3c(=O)n(CC[C@](C)(C(=O)NO)S(C)(=O)=O)ccc3c2)cc1 [Example 79, (2R)-4-(6-{4-[(2,2-dimethylhydrazin-1-yl)methyl]phenyl}-1-oxo-1,2-dihydroisoquinolin-2-yl)-N-hydroxy-2-methanesulfonyl-2-methylbutanamide] | 0.5 µg/mL (≈ 1.03 µM) | 8 µg/mL (≈ 16.4 µM) | 0.125 µg/mL (≈ 0.257 µM)
